Results taken from US20250101041A1, “POSITIVE ALLOSTERIC MODULATORS OF THE MUSCARINIC ACETYLCHOLINE RECEPTOR M4” (Vanderbilt University, priority 2022, published 2025).
pEC50: −log10 of the molar value.

Target: T1, human mAChR M4 (Homo sapiens, UniProt P08173)
T1 construct: expressed in transfected cells; host or cells: CHO-K1 (American Type Culture Collection), stably expressing hM4 and Gqi5
T1 sequence (P08173 1-479): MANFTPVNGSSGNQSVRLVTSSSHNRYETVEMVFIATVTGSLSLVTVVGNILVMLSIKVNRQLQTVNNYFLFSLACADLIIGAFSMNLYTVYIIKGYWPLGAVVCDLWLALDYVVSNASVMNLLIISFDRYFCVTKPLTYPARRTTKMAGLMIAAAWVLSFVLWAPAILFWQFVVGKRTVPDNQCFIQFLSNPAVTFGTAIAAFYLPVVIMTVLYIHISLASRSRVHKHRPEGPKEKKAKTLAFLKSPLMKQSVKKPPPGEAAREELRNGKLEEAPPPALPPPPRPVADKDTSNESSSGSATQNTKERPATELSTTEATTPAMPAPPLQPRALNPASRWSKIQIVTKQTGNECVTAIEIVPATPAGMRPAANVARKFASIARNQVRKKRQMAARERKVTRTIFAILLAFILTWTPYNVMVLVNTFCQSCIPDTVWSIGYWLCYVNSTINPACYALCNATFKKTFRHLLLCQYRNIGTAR
Assay: mAChR M4 cell-based functional assay: calcium mobilization (Fluo-4, FDSS), potentiation of EC20 acetylcholine response in hM4-Gqi5 CHO-K1 cells
Design: Emax: dose or concentration left out as unconfirmed
Conditions: for Emax at 30 µM: CHO-K1, % ACh maximum at 30 μM; for Emax at 30 µM / pEC50: human M4; for pEC50: potentiation of EC20 acetylcholine response, calcium mobilization
How it was run: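 CHO-K1 cells stably co-expressing human M4 and chimeric Gqi5, loaded with Fluo-4 AM (50 min, 37 °C). Compounds in 11-point 1:3 series added first; EC20 acetylcholine added at 144 s and again at 230 s. Calcium read on FDSS at 1 Hz; EC50 and Emax from four-parameter logistic fit of potentiated EC20 response.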

| SMILES | Emax at 30 µM [%] | pEC50 | Emax (CHO-K1) [%] |
| --- | --- | --- | --- |
| Cc1cc2nc(C)c(F)c(=O)n2nc1N1CCc2ncc(Nc3ccncc3F)cc2C1 [Compound 2-156, 3-fluoro-7-(3-((3-fluoropyridin-4-yl)amino)-7,8-dihydro-1,6-naphthyridin-6(5H)-yl)-2,8-dimethyl-4H-pyrimido[1,2-b]pyridazin-4-one] | 97 | 7.19 | – |
| Cc1cc2nccc(=O)n2nc1N1CCc2ncc(NCc3cscn3)cc2C1 [Compound 2-130, 8-methyl-7-(3-((thiazol-4-ylmethyl)amino)-7,8-dihydro-1,6-naphthyridin-6(5H)-yl)-4H-pyrimido[1,2-b]pyridazin-4-one] | 87 | 6.29 | – |
| COCc1cc(=O)n2nc(N3CCc4ncc(-c5cccs5)cc4C3)c(C)cc2n1 [Compound 1-367, 2-(methoxymethyl)-8-methyl-7-(3-(thiophen-2-yl)-7,8-dihydro-1,6-naphthyridin-6(5H)-yl)-4H-pyrimido[1,2-b] pyridazin-4-one] | 71 | 6.85 | – |
| Cc1cc(=O)n2nc(N3CCc4ncc(-c5ccccc5C(F)(F)F)cc4C3)c(C)cc2n1 [Compound 1-255, 2,8-dimethyl-7-(3-(2-(trifluoromethyl)phenyl)-7,8-dihydro-1,6-naphthyridin-6(5H)-yl)-4H-pyrimido[1,2-b] pyridazin-4-one] | 60 | 5.63 | – |
| Cc1cc(=O)n2nc(N3CCc4ncc(-c5cc(F)c(F)cc5F)cc4C3)c(C)c(C)c2n1 [Compound 1-200, 2,8,9-trimethyl-7-(3-(2,4,5-trifluorophenyl)-7,8-dihydro-1,6-naphthyridin-6(5H)-yl)-4H-pyrimido[1,2-b] pyridazin-4-one] | 84 | 6.27 | – |
| C=Cc1cnc2cc(C)c(N3CCc4ncc(C(F)(F)F)cc4C3)nn2c1=O [Compound 1-22, 8-Methyl-7-(3-(trifluoromethyl)-7,8-dihydro-1,6-naphthyridin-6(5H)-yl)-3-vinyl-4H-pyrimido[1,2-b]pyridazin-4-one] | – | 6.61 | 73 |
| Cc1cc(=O)n2nc(N3CCc4ncc(-c5ccccc5OC(F)(F)F)cc4C3)c(C)c(C)c2n1 [Compound 1-275, 2,8,9-trimethyl-7-(3-(2-(trifluoromethoxy)phenyl)-7,8-dihydro-1,6-naphthyridin-6(5H)-yl)-4H-pyrimido[1,2-b]pyridazin-4-one] | 54 | 5.75 | – |
| Cc1cc2nccc(=O)n2nc1N1CCc2ncc(-c3ccc(C4CC4)nc3)cc2C1 [Compound 1-67, 7-(3-(6-cyclopropylpyridin-3-yl)-7,8-dihydro-1,6-naphthyridin-6(5H)-yl)-8-methyl-4H-pyrimido[1,2-b]pyridazin-4-one] | 80 | 6.48 | – |
| Cc1cc(=O)n2nc(N3CCc4ncc(-c5cccnc5)cc4C3)c(C)c(C)c2n1 [Compound 1-129, 2,8,9-trimethyl-7-(3-(pyridin-3-yl)-7,8-dihydro-1,6-naphthyridin-6(5H)-yl)-4H-pyrimido[1,2-b]pyridazin-4-one] | 91 | 5.79 | – |
| Cc1cc(=O)n2nc(N3CCc4ncc(-c5ccccc5OC(F)(F)F)cc4C3)c(C)cc2n1 [Compound 1-254, 2,8-dimethyl-7-(3-(2-(trifluoromethoxy)phenyl)-7,8-dihydro-1,6-naphthyridin-6(5H)-yl)-4H-pyrimido[1,2-b]pyridazin-4-one] | 48 | 5.86 | – |
| Cc1cc2nccc(=O)n2nc1N1CCc2ncc(Nc3cc(F)cc(C#N)c3)cc2C1 [Compound 2-104, 3-fluoro-5-((6-(8-methyl-4-oxo-4H-pyrimido[1,2-b]pyridazin-7-yl)-5,6,7,8-tetrahydro-1,6-naphthyridin-3-yl)amino)benzonitrile] | 85 | 7.34 | – |
| Cc1cc2nccc(=O)n2nc1N1CCc2ncc(-c3c(C)ccnc3C)cc2C1 [Compound 1-401, 7-(3-(2,4-dimethylpyridin-3-yl)-7,8-dihydro-1,6-naphthyridin-6(5H)-yl)-8-methyl-4H-pyrimido [1,2-b]pyridazin-4-one] | 39 | – | – |
| Cc1c(N2CCc3ncc(-c4ccc(-n5ccnc5)nc4)cc3C2)nn2c(=O)ccnc2c1C [Compound 1-98, 7-(3-(6-(1H-imidazol-1-yl)pyridin-3-yl)-7,8-dihydro-1,6-naphthyridin-6(5H)-yl)-8,9-dimethyl-4H-pyrimido[1,2-b]pyridazin-4-one] | 86 | 6.27 | – |

Now from value to molecule, other results behind:

| Emax at 30 µM [%] | pEC50 | SMILES | Emax (CHO-K1) [%] |
| --- | --- | --- | --- |
| 48 | 6.29 | Cc1c(N2CCc3ncc(-c4cnccc4C(F)(F)F)cc3C2)nn2c(=O)cc(C(F)F)nc2c1C [Compound 1-189, 2-(difluoromethyl)-8,9-dimethyl-7-(3-(4-(trifluoromethyl)pyridin-3-yl)-7,8-dihydro-1,6-naphthyridin-6(5H)-yl)-4H-pyrimido[1,2-b]pyridazin-4-one] | – |
| 83 | 6.87 | COCc1cc(=O)n2nc(N3CCc4ncc(-c5cc(F)ccc5C)cc4C3)c(C)c(C)c2n1 [Compound 1-227, 7-(3-(5-fluoro-2-methylphenyl)-7,8-dihydro-1,6-naphthyridin-6(5H)-yl)-2-(methoxymethyl)-8,9-dimethyl-4H-pyrimido[1,2-b]pyridazin-4-one] | – |
| 75 | 6.16 | Cc1cc2nccc(=O)n2nc1N1CCc2ncc(-c3ccc4nccn4c3)cc2C1 [Compound 1-53, 7-(3-(imidazo[1,2-a]pyridin-6-yl)-7,8-dihydro-1,6-naphthyridin-6(5H)-yl)-8-methyl-4H-pyrimido[1,2-b]pyridazin-4-one] | – |
| 68 | 6.32 | COCc1cc(=O)n2nc(N3CCc4ncc(-c5cc(F)ncc5C)cc4C3)c(C)cc2n1 [Compound 1-328, 7-(3-(2-fluoro-5-methylpyridin-4-yl)-7,8-dihydro-1,6-naphthyridin-6(5H)-yl)-2-(methoxymethyl)-8-methyl-4H-pyrimido[1,2-b] pyridazin-4-one] | – |
| 70 | 6.13 | Cc1cc(=O)n2nc(N3CCc4ncc(-c5ccc6nccn6c5)cc4C3)c(C)cc2n1 [Compound 1-220, 7-(3-(imidazo[1,2-a]pyridin-6-yl)-7,8-dihydro-1,6-naphthyridin-6(5H)-yl)-2,8-dimethyl-4H-pyrimido[1,2-b]pyridazin-4-one] | – |
| 76 | 6.39 | Cc1cc(=O)n2nc(N3CCc4ncc(-c5cnn(C6CC6)c5)cc4C3)c(C)cc2n1 [Compound 1-32, 7-(3-(1-cyclopropyl-1H-pyrazol-4-yl)-7,8-dihydro-1,6-naphthyridin-6(5H)-yl)-2,8-dimethyl-4H-pyrimido[1,2-b]pyridazin-4-one] | – |
| 54 | 5.98 | Cc1c(N2CCc3ncc(OCCN4CCOC4=O)cc3C2)nn2c(=O)ccnc2c1C [Compound 3-4, 3-(2-((6-(8,9-Dimethyl-4-oxo-4H-pyrimido[1,2-b]pyridazin-7-yl)-5,6,7,8-tetrahydro-1,6-naphthyridin-3-yl)oxy)ethyl)oxazolidin-2-one] | – |
| 101 | 7.41 | Cc1cc2nccc(=O)n2nc1N1CCc2ncc(Nc3cc(F)nc(F)c3)cc2C1 [Compound 2-100, 7-(3-((2,6-difluoropyridin-4-yl)amino)-7,8-dihydro-1,6-naphthyridin-6(5H)-yl)-8-methyl-4H-pyrimido[1,2-b]pyridazin-4-one] | – |
| 64 | 6.86 | Cc1c(N2CCc3ncc(-c4cnn(C5CCOCC5)c4)cc3C2)nn2c(=O)ccnc2c1C [Compound 1-192, 8,9-dimethyl-7-(3-(1-(tetrahydro-2H-pyran-4-yl)-1H-pyrazol-4-yl)-7,8-dihydro-1,6-naphthyridin-6(5H)-yl)-4H-pyrimido[1,2-b]pyridazin-4-one] | – |
| 72 | 6.49 | Cc1ccc2c(-c3cnc4c(c3)CN(c3nn5c(=O)ccnc5cc3C)CC4)cccc2n1 [Compound 1-48, 8-methyl-7-(3-(2-methylquinolin-5-yl)-7,8-dihydro-1,6-naphthyridin-6(5H)-yl)-4H-pyrimido[1,2-b]pyridazin-4-one] | – |
| 69 | 6.10 | Cc1cc2nccc(=O)n2nc1N1CCc2ncc(NCC(C)C)cc2C1 [Compound 2-90, 7-(3-(isobutylamino)-7,8-dihydro-1,6-naphthyridin-6(5H)-yl)-8-methyl-4H-pyrimido[1,2-b]pyridazin-4-one] | – |
| 78 | 5.82 | Cc1cc(C#N)ncc1-c1cnc2c(c1)CN(c1nn3c(=O)ccnc3cc1C)CC2 [Compound 1-355, 4-methyl-5-(6-(8-methyl-4-oxo-4H-pyrimido[1,2-b]pyridazin-7-yl)-5,6,7,8-tetrahydro-1,6-naphthyridin-3-yl)picolinonitrile] | – |
| 89 | 6.44 | COc1ccncc1-c1cnc2c(c1)CN(c1nn3c(=O)ccnc3c(C)c1C)CC2 [Compound 1-140, 7-(3-(4-methoxypyridin-3-yl)-7,8-dihydro-1,6-naphthyridin-6(5H)-yl)-8,9-dimethyl-4H-pyrimido[1,2-b]pyridazin-4-one] | – |
